Experiments:
Assay type in all cases: in vivo
[1] = test system: Diabrotica balteata (Corn Root Worm); experiment: Diabrotica balteata, artificial diet MTP test; settings: 120 h, 200 ppm (concentration in well 18 ppm), L2 larvae, larval mortality after 5 days
Description: A 24-well microtiter plate (MTP) with artificial diet was treated with test solutions at an application rate of 200 ppm (concentration in well 18 ppm) by pipetting. After drying, the MTP's were infested with L2 larvae (6-10 per well). After an incubation period of 5 days, samples were checked for larval mortality The following compound gave at least 80% control of Diabrotica balteata: 1, 2, 3, 4, 5, 6, 7, 8, 9, 10, 11, 12, 13, 14, 15, 16, 17, 18, 19, 20, 21, 22, 23, 24, 25, 26, 27, 28, 29, 30, 31, 32, 33, 34, 35, 36, 37, 38, 39, 40, 41, 42, 43, 44, 45, 46, 47, 48, 49, 50, 51.

[2] = test system: Myzus persicae (Green Peach Aphid); experiment: Myzus persicae, sunflower leaf disc spray test; settings: foliar, 144 h, sprayed sunflower leaf discs, aphid population of mixed ages, mortality after 6 DAT
Description: Sunflower leaf discs were placed on agar in a 24-well microtiter plate and sprayed with test solutions at an application rate of 200 ppm. After drying, the leaf discs were infested with an aphid population of mixed ages. After an incubation period of 6 DAT, samples were checked for mortality.

[3] = test system: Myzus persicae (Green Peach Aphid); experiment: Myzus persicae, sucrose solution / Parafilm test; settings: 120 h, mixed with sucrose solution under Parafilm, mortality 5 days after infestation
Text: Test compounds were applied by pipette into 24 well plates and mixed with Sucrose solution. Application rate: 12.5 ppm. The plates were closed with a stretched Parafilm. A plastic stencil with 24 holes is placed onto the plate and infested pea seedlings were placed directly on the Parafilm. The infested plate is closed with a gel blotting paper and another plastic stencil and then turned upside down. 5 days after infestation the samples were checked on mortality.

[4] = test system: Plutella xylostella (Diamond Back Moth); experiment: Plutella xylostella, artificial diet MTP test; settings: 144 h, 200 ppm (concentration in well 18 ppm), L2 larvae, 6 days
Description: 24-well microtiter plate (MTP) with artificial diet was treated with test solutions at an application rate of 200 ppm (concentration in well 18 ppm) by pipetting. After drying, the MTP's were infested with L2 larvae (7-12 per well). After an incubation period of 6 days, samples were checked for larval mortality and growth regulation. The following compound gave at least 80% mortality of Plutella xylostella: 1, 2, 3, 4, 5, 6, 7, 8, 9, 10, 11, 12, 13, 14, 15, 16, 17, 18, 19, 20, 21, 22, 23, 24, 25, 26, 27, 28, 29, 30, 31, 32, 33, 34, 35, 36, 37, 38, 39, 40, 41, 42, 43, 44, 45, 46, 47, 48, 49, 50.

[5] = test system: Spodoptera littoralis (Egyptian Cotton Leafworm); experiment: Spodoptera littoralis, cotton leaf disc spray test; settings: foliar, 72 h, sprayed cotton leaf discs, L1 larvae, 3 days after treatment
Text: Cotton leaf discs were placed on agar in a 24-well microtiter plate and sprayed with test solutions at an application rate of 200 ppm. After drying, the leaf discs were infested with 5 L1 larvae. The samples were checked for mortality 3 days after treatment (DAT).

[6] = test system: Spodoptera littoralis (Egyptian Cotton Leaf Worm); experiment: Spodoptera littoralis, agar / lettuce root uptake test; settings: 144 h, mixed with agar, uptake by lettuce roots, mortality 6 days after infestation
Text: Test compounds were applied by pipette into 24 well plates and mixed with agar. Application rate: 12.5 ppm. Lettuce seeds were placed on the agar and the multi well plate is closed by another plate which contains also agar. After 7 days the roots have absorbed the compound and the lettuce has grown into the lid plate. The lettuce leafs were now cut off into the lid plate. Spodoptera eggs were pipetted through a plastic stencil on a humid gel blotting paper and the plate closed with it. The samples are checked for mortality 6 days after infestation.

[7] = test system: Tetranychus urticae (Two-Spotted Spider Mite); experiment: Tetranychus urticae, bean leaf disc spray test; settings: foliar, 192 h, sprayed bean leaf discs, mite populations of mixed ages, 8 days
Text: Bean leaf discs on agar in 24-well microtiter plates were sprayed with test solutions at an application rate of 200 ppm. After drying, the leaf discs are infested with mite populations of mixed ages. 8 days later, discs were checked for mortality.

[8] = test system: Thrips tabaci (Onion Thrips); experiment: Thrips tabaci, sunflower leaf disc spray test; settings: foliar, 168 h, sprayed sunflower leaf discs, mortality after 7 days

CCc1cc(C(F)(C(F)(F)F)C(F)(F)Cl)cc(Br)c1NC(=O)c1cccc(NC(=O)c2cccnc2)c1OC (centres unmarked) [Compound 21]
≥ 80%: pest or weed control at 200 ppm [1] | pest or weed control at 200 ppm [2] | pest or weed control at 12.5 ppm [3] | mortality at 200 ppm [4] | mortality at 200 ppm [5] | pest or weed control at 12.5 ppm [6] | mortality at 200 ppm [7] | pest or weed control at 200 ppm [8]

O=C(Nc1cccc(C(=O)Nc2c(Br)cc(C(F)(C(F)(F)F)C(F)(F)Cl)cc2OC(F)F)c1F)c1cc[n+]([O-])cc1 (centres unmarked) [Compound 23]
≥ 80%: pest or weed control at 200 ppm [1] | pest or weed control at 200 ppm [2] | pest or weed control at 12.5 ppm [3] | mortality at 200 ppm [4] | mortality at 200 ppm [5] | pest or weed control at 12.5 ppm [6] | mortality at 200 ppm [7] | pest or weed control at 200 ppm [8]

O=C(Nc1cccc(C(=O)Nc2c(Br)cc(C(F)(C(F)(F)F)C(F)(F)Cl)cc2OC(F)F)c1F)c1ccc[n+]([O-])c1 (centres unmarked) [Compound 24]
≥ 80%: pest or weed control at 200 ppm [1] | pest or weed control at 200 ppm [2] | pest or weed control at 12.5 ppm [3] | mortality at 200 ppm [4] | mortality at 200 ppm [5] | pest or weed control at 12.5 ppm [6] | mortality at 200 ppm [7] | pest or weed control at 200 ppm [8]

COc1c(NC(=O)c2cc[n+]([O-])cc2)cccc1C(=O)Nc1c(Br)cc(C(F)(C(F)(F)F)C(F)(F)Cl)cc1OC(F)F (centres unmarked) [Compound 25]
≥ 80%: pest or weed control at 200 ppm [1] | pest or weed control at 200 ppm [2] | pest or weed control at 12.5 ppm [3] | mortality at 200 ppm [4] | mortality at 200 ppm [5] | pest or weed control at 12.5 ppm [6] | mortality at 200 ppm [7] | pest or weed control at 200 ppm [8]

COc1c(NC(=O)c2ccc[n+]([O-])c2)cccc1C(=O)Nc1c(Br)cc(C(F)(C(F)(F)F)C(F)(F)Cl)cc1OC(F)F (centres unmarked) [Compound 26]
≥ 80%: pest or weed control at 200 ppm [1] | pest or weed control at 200 ppm [2] | pest or weed control at 12.5 ppm [3] | mortality at 200 ppm [4] | mortality at 200 ppm [5] | pest or weed control at 12.5 ppm [6] | mortality at 200 ppm [7] | pest or weed control at 200 ppm [8]

CCN(C(=O)c1ccc(C#N)cc1)c1cccc(C(=O)Nc2c(Br)cc(C(F)(C(F)(F)F)C(F)(F)Cl)cc2OC(F)F)c1F (centres unmarked) [Compound 31]
≥ 80%: pest or weed control at 200 ppm [1] | pest or weed control at 200 ppm [2] | pest or weed control at 12.5 ppm [3] | mortality at 200 ppm [4] | mortality at 200 ppm [5] | pest or weed control at 12.5 ppm [6] | mortality at 200 ppm [7] | pest or weed control at 200 ppm [8]

CCN(C(=O)c1ccc(C#N)cc1)c1cccc(C(=O)Nc2c(Br)cc(C(F)(C(F)(F)F)C(F)(F)Cl)cc2OC(F)F)c1OC (centres unmarked) [Compound 32]
≥ 80%: pest or weed control at 200 ppm [1] | pest or weed control at 200 ppm [2] | pest or weed control at 12.5 ppm [3] | mortality at 200 ppm [4] | mortality at 200 ppm [5] | pest or weed control at 12.5 ppm [6] | mortality at 200 ppm [7] | pest or weed control at 200 ppm [8]

CCN(C(=O)c1ccncc1)c1cccc(C(=O)Nc2c(Br)cc(C(F)(C(F)(F)F)C(F)(F)Cl)cc2OC(F)F)c1F (centres unmarked) [Compound 35]
≥ 80%: pest or weed control at 200 ppm [1] | pest or weed control at 200 ppm [2] | pest or weed control at 12.5 ppm [3] | mortality at 200 ppm [4] | mortality at 200 ppm [5] | pest or weed control at 12.5 ppm [6] | mortality at 200 ppm [7] | pest or weed control at 200 ppm [8]

CCN(C(=O)c1ccncc1)c1cccc(C(=O)Nc2c(Br)cc(C(F)(C(F)(F)F)C(F)(F)Cl)cc2OC(F)F)c1OC (centres unmarked) [Compound 36, N-[3-[[2-bromo-4-[1-[chloro(difluoro)methyl]-1,2,2,2-tetrafluoro-ethyl]-6-(difluoromethoxy)phenyl]carbamoyl]-2-methoxy-phenyl]-N-ethyl-pyridine-4-carboxamide]
≥ 80%: pest or weed control at 200 ppm [1] | pest or weed control at 200 ppm [2] | pest or weed control at 12.5 ppm [3] | mortality at 200 ppm [4] | mortality at 200 ppm [5] | pest or weed control at 12.5 ppm [6] | mortality at 200 ppm [7] | pest or weed control at 200 ppm [8]

CCN(C(=O)c1cccnc1)c1cccc(C(=O)Nc2c(Br)cc(C(F)(C(F)(F)F)C(F)(F)Cl)cc2OC(F)F)c1F (centres unmarked) [Compound 39]
≥ 80%: pest or weed control at 200 ppm [1] | pest or weed control at 200 ppm [2] | pest or weed control at 12.5 ppm [3] | mortality at 200 ppm [4] | mortality at 200 ppm [5] | pest or weed control at 12.5 ppm [6] | mortality at 200 ppm [7] | pest or weed control at 200 ppm [8]

CCN(C(=O)c1cccnc1)c1cccc(C(=O)Nc2c(Br)cc(C(F)(C(F)(F)F)C(F)(F)Cl)cc2OC(F)F)c1OC (centres unmarked) [Compound 40]
≥ 80%: pest or weed control at 200 ppm [1] | pest or weed control at 200 ppm [2] | pest or weed control at 12.5 ppm [3] | mortality at 200 ppm [4] | mortality at 200 ppm [5] | pest or weed control at 12.5 ppm [6] | mortality at 200 ppm [7] | pest or weed control at 200 ppm [8]

CCc1cc(C(F)(C(F)(F)F)C(F)(F)Cl)cc(Br)c1NC(=O)c1cccc(N(CC)C(=O)c2cccnc2)c1F (centres unmarked) [Compound 41]
≥ 80%: pest or weed control at 200 ppm [1] | pest or weed control at 200 ppm [2] | pest or weed control at 12.5 ppm [3] | mortality at 200 ppm [4] | mortality at 200 ppm [5] | pest or weed control at 12.5 ppm [6] | mortality at 200 ppm [7] | pest or weed control at 200 ppm [8]

CCN(C(=O)c1cc[n+]([O-])cc1)c1cccc(C(=O)Nc2c(Br)cc(C(F)(C(F)(F)F)C(F)(F)Cl)cc2OC(F)F)c1F (centres unmarked) [Compound 43]
≥ 80%: pest or weed control at 200 ppm [1] | pest or weed control at 200 ppm [2] | pest or weed control at 12.5 ppm [3] | mortality at 200 ppm [4] | mortality at 200 ppm [5] | pest or weed control at 12.5 ppm [6] | mortality at 200 ppm [7] | pest or weed control at 200 ppm [8]

CCN(C(=O)c1cc[n+]([O-])cc1)c1cccc(C(=O)Nc2c(Br)cc(C(F)(C(F)(F)F)C(F)(F)Cl)cc2OC(F)F)c1OC (centres unmarked) [Compound 44, N-[3-[[2-bromo-4-[1-[chloro(difluoro)methyl]-1,2,2,2-tetrafluoro-ethyl]-6-(difluoromethoxy)phenyl]carbamoyl]-2-methoxy-phenyl]-N-ethyl-1-oxido-pyridin-1-ium-4-carboxamide]
≥ 80%: pest or weed control at 200 ppm [1] | pest or weed control at 200 ppm [2] | pest or weed control at 12.5 ppm [3] | mortality at 200 ppm [4] | mortality at 200 ppm [5] | pest or weed control at 12.5 ppm [6] | mortality at 200 ppm [7] | pest or weed control at 200 ppm [8]

CCN(C(=O)c1ccc[n+]([O-])c1)c1cccc(C(=O)Nc2c(Br)cc(C(F)(C(F)(F)F)C(F)(F)Cl)cc2OC(F)F)c1F (centres unmarked) [Compound 47]
≥ 80%: pest or weed control at 200 ppm [1] | pest or weed control at 200 ppm [2] | pest or weed control at 12.5 ppm [3] | mortality at 200 ppm [4] | mortality at 200 ppm [5] | pest or weed control at 12.5 ppm [6] | mortality at 200 ppm [7] | pest or weed control at 200 ppm [8]

CCN(C(=O)c1ccc[n+]([O-])c1)c1cccc(C(=O)Nc2c(Br)cc(C(F)(C(F)(F)F)C(F)(F)Cl)cc2OC(F)F)c1OC (centres unmarked) [Compound 48]
≥ 80%: pest or weed control at 200 ppm [1] | pest or weed control at 200 ppm [2] | pest or weed control at 12.5 ppm [3] | mortality at 200 ppm [4] | mortality at 200 ppm [5] | pest or weed control at 12.5 ppm [6] | mortality at 200 ppm [7] | pest or weed control at 200 ppm [8]

Source: patent USRE49022E1, “Insecticidal compounds” (SYNGENTA PARTICIPATIONS AG, priority 2013, dated 2022)
